The text below walks through data of ChEMBL document CHEMBL3046855, “Chemical control of Prosopis farcta (Banks and Sol.) Macbride in the Jordan Valley” (2007).

Format in all cases: functional
Experiment [1] relates to Prosopis farcta. Description: Herbicidal activity against Prosopis farcta assessed as shoot dry weight at 1000 l/ha applied twice followed by harvest measured after vegetative regrowth (reference value: 2.784 metric tons/ha).
Experiment [2] deals with Prosopis farcta. Description: Herbicidal activity against Prosopis farcta assessed as shoot fresh weight at 1000 l/ha applied twice followed by harvest measured after vegetative regrowth (reference value: 3.53 metric tons/ha).
Experiment [3] has as its system Prosopis farcta. Kind of experiment: Herbicidal activity against Prosopis farcta assessed as shoot dry weight at 1000 l/ha applied twice (reference value: 1.528 metric tons/ha).
Experiment [4] concerns Prosopis farcta. Description: Herbicidal activity against Prosopis farcta assessed as shoot fresh weight at 1000 l/ha applied twice (reference value: 4.18 metric tons/ha).
Experiment [5] has as its system Prosopis farcta. Kind of experiment: Herbicidal activity against Prosopis farcta assessed as shoot dry weight at 1000 l/ha applied once followed by harvest measured after vegetative regrowth (reference value: 1.593 metric tons/ha).
Experiment [6] relates to Prosopis farcta. Kind of experiment: Herbicidal activity against Prosopis farcta assessed as shoot fresh weight at 1000 l/ha applied once followed by harvest measured after vegetative regrowth (reference value: 2.062 metric tons/ha).
Experiment [7] deals with Prosopis farcta. Description: Herbicidal activity against Prosopis farcta assessed as shoot dry weight at 1000 l/ha applied once (reference value: 0.833 metric tons/ha).
Experiment [8] relates to Prosopis farcta. Description: Herbicidal activity against Prosopis farcta assessed as shoot fresh weight at 1000 l/ha applied once (reference value: 1.72 metric tons/ha).

On to `CCCCC(CC)COC(=O)COc1ccc(Cl)cc1Cl` (stereo unspecified), for which the Activity was 0.063 MT/ha with Prosopis farcta [1]; 0.1 MT/ha in the experiment on Prosopis farcta [2]; 0.365 MT/ha with Prosopis farcta [3]; 0.8 MT/ha in the experiment with Prosopis farcta [4]; 0.213 MT/ha with Prosopis farcta [5]; 0.277 MT/ha in the experiment with Prosopis farcta [6]. Moreover, the Activity with Prosopis farcta [7] turned out to be 0.625 MT/ha; with Prosopis farcta [8], 1.33 MT/ha.
As to `CNC.O=C(O)COc1ccc(Cl)cc1Cl` [2,4-D-Dimethylammonium], the Activity stood at 0.511 MT/ha in the experiment with Prosopis farcta [1]; 0.58 MT/ha with Prosopis farcta [2]; 0.345 MT/ha in the experiment on Prosopis farcta [3]; 0.8 MT/ha in the experiment with Prosopis farcta [4]; 0.144 MT/ha in the experiment on Prosopis farcta [5]; 0.323 MT/ha with Prosopis farcta [6]. Besides, the figures for the Activity with Prosopis farcta [7] and with Prosopis farcta [8] were 0.593 MT/ha and 1.27 MT/ha, respectively.
As for `O=C(O)CNCP(=O)(O)O` [GLYPHOSATE], the Activity in the experiment with Prosopis farcta [1] came to 0.976 MT/ha; in the experiment on Prosopis farcta [2], 1.23 MT/ha; in the experiment on Prosopis farcta [3], 0.32 MT/ha; in the experiment with Prosopis farcta [4], 0.71 MT/ha; in the experiment on Prosopis farcta [5] it was 0.317 MT/ha; in the experiment with Prosopis farcta [6], 0.432 MT/ha. In addition, the Activity in the experiment on Prosopis farcta [7] amounted to 0.491 MT/ha; in the experiment on Prosopis farcta [8], 1.05 MT/ha.
For `Cc1cc(Cl)ccc1OC(C)C(=O)O` (stereo unspecified) [MECOPROP], the Activity in the experiment with Prosopis farcta [1] is on record as 1.125 MT/ha; in the experiment with Prosopis farcta [2], 1.46 MT/ha; in the experiment with Prosopis farcta [3], 0.403 MT/ha; in the experiment on Prosopis farcta [4], 0.93 MT/ha; with Prosopis farcta [5], 0.527 MT/ha; with Prosopis farcta [6] it was 0.655 MT/ha. The values for the Activity in the experiment on Prosopis farcta [7] and in the experiment on Prosopis farcta [8] were 0.423 MT/ha and 0.9 MT/ha, respectively.
On to `CCOc1cc(Oc2ccc(C(F)(F)F)cc2Cl)ccc1[N+](=O)[O-]` [OXYFLUORFEN], for which the Activity in the experiment on Prosopis farcta [1] stood at 1.147 MT/ha; in the experiment with Prosopis farcta [2], 1.47 MT/ha; with Prosopis farcta [3] it was 0.479 MT/ha; in the experiment with Prosopis farcta [4], 0.96 MT/ha; in the experiment with Prosopis farcta [5], 3.481 MT/ha; in the experiment on Prosopis farcta [6] it was 4.511 MT/ha. Also, the values for the Activity with Prosopis farcta [7] and in the experiment on Prosopis farcta [8] were 0.26 MT/ha and 0.6 MT/ha, respectively.
As to `C[n+]1ccc(-c2cc[n+](C)cc2)cc1` [PARAQUAT], the Activity in the experiment with Prosopis farcta [1] is given as 0.764 MT/ha; in the experiment with Prosopis farcta [2], 0.91 MT/ha; in the experiment with Prosopis farcta [3], 0.404 MT/ha; with Prosopis farcta [4], 0.93 MT/ha; with Prosopis farcta [5] it was 0.647 MT/ha; in the experiment on Prosopis farcta [6], 0.757 MT/ha. Moreover, the results for the Activity in the experiment on Prosopis farcta [7] and in the experiment on Prosopis farcta [8] were 0.593 MT/ha and 1.27 MT/ha, respectively.
In the case of `O=C(O)COc1nc(Cl)c(Cl)cc1Cl` [TRICLOPYR], the Activity with Prosopis farcta [1] stood at 0.05 MT/ha; in the experiment with Prosopis farcta [2] it was 0.05 MT/ha; in the experiment on Prosopis farcta [3], 0.461 MT/ha; with Prosopis farcta [4], 1.07 MT/ha; with Prosopis farcta [5], 0.231 MT/ha; in the experiment with Prosopis farcta [6] it was 0.301 MT/ha. Also, the Activity with Prosopis farcta [7] came to 0.567 MT/ha; in the experiment on Prosopis farcta [8], 1.21 MT/ha.
